Laboratory results as given in patent US20180111913A1, “SUBSTITUTED BENZOFURAN DERIVATIVES AS NOVEL ANTIMYCOBACTERIAL AGENTS” (priority 2015, published 2018).
Values after ≈ are worked out from the molar mass of the structure shown. Read-outs that look alike come from different tables or passages of the source.

Key:
Mtb strain mc^27000 = test: microbe, parasite or virus in culture; assay type: cell-based, Mycobacterium tuberculosis
[1] = system: human dermal fibroblast (HDF) cells; conditions: for Non-Toxic Concentration: human, 48 h
[2] = target: Mtb Pks13-TE domain (wild-type) (Mycobacterium tuberculosis, UniProt I6X8D2); test: biochemical; assay type: biochemical
Mtb Pks13-TE domain (wild-type), sequence (I6X8D2 1451-1733): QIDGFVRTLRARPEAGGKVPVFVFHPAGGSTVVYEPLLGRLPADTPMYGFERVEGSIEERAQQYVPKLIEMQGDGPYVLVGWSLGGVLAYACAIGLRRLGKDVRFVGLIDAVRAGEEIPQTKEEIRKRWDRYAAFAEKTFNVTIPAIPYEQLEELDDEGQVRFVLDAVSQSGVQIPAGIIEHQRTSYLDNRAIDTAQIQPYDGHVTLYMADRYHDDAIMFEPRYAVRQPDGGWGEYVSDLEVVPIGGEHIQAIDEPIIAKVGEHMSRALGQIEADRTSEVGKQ

[3] = Mycobacterium tuberculosis, Mtb mc^27000, liquid medium, 96-well plates, read-out: MIC
[4] = Mycobacterium tuberculosis, […], mean ± s.d. of triplicates, NI: no inhibition, read-out: MIC
[5] = Mycobacterium tuberculosis, read-out: Pks13 MIC
[6] = HDF cell survival relative to DMSO-only control at the first (or only) Non-Toxic Concentration value
[7] = Pks13-TE, 20 μM 4-MUH, read-out: IC50
[8] = Pks13 enzyme inhibition, read-out: Pks13 IC50
[9] = Mtb mc^27000, liquid medium, 96-well plates, read-out: MIC
[10] = HDF cell survival relative to DMSO-only control at the second Non-Toxic Concentration value
[11] = Mtb mc^27000, liquid medium, 96-well plates
[12] = […], mean ± s.d. of triplicates, NI: no inhibition
[13] = Mtb Pks13-TE domain, mean ± s.d. of triplicates, read-out: IC50

SMILES | MIC (Mtb strain mc^27000; [3]) [µM] | MIC (Mtb strain mc^27000; [5]) [µM] | Survival vs. Control [1, 6] [%] | Non-Toxic Concentration [1] [µM] | IC50 [2, 7] [nM] | IC50 [2, 8] [nM] | further results
CCOC(=O)c1c(-c2ccccc2)oc2ccc(O)c(CN3CCCCC3)c12 [compound 13] | 0.4 (≈ 0.152 µg/mL) | 0.4 (≈ 0.152 µg/mL) | 105 | 50 | 300 | 260 | MIC (Mtb strain mc^27000; [4]): 0.4 µM (≈ 0.152 µg/mL); growth inhibition in HDF cells relative to DMSO only control [1]: did not show any growth inhibition
O=C(c1c(-c2ccccc2)oc2ccc(O)c(CN3CCCCC3)c12)N1CCCCC1 [compound 42] | – | > 10 | 89 | 100 | 740 | 320 | MIC (Mtb strain mc^27000; [9]): 3.1 µM (≈ 1.3 µg/mL)
CCOC(=O)c1c(-c2ccc(O)cc2)oc2cc(O)cc(CN3CCCCC3)c12 [compound 45] | 1.1 (≈ 0.435 µg/mL) | 1.1 (≈ 0.435 µg/mL) | 89 | 100 | 440 | 440 | –
CCOC(=O)c1c(-c2ccc(O)nc2)oc2ccc(O)c(CN3CCCCC3)c12 [compound 58] | 4 (≈ 1.59 µg/mL) | 4 (≈ 1.59 µg/mL) | 95 | 50 | – | 360 | –
Oc1ccc2[nH]c(-c3ccccc3)nc2c1CN1CCCCC1 [compound 8] | 22 (≈ 6.76 µg/mL) | 22 (≈ 6.76 µg/mL) | 78 | – | 6800 | 6800 | Survival vs. Control [1, 10]: 94%
CNC(=O)c1c(-c2ccc(F)cc2)oc2ccc(O)c(CN3CCCCC3)c12 [compound 29] | 4.5 (≈ 1.72 µg/mL) | 4.5 (≈ 1.72 µg/mL) | 89 | – | 300 | 300 | Survival vs. Control [1, 10]: 112%
CCOC(=O)c1c(-c2ccccc2)oc2cc(N)cc(CN3CCCCC3)c12 [compound 34] | 9.2 (≈ 3.48 µg/mL) | 9.2 (≈ 3.48 µg/mL) | 82 | 100 | 4500 | 4500 | –
CCOC(=O)c1c(-c2ccccc2)oc2ccc(O)c(CN3CCOCC3)c12 [compound 5] | – | – | – | – | 710 | – | higher MIC compared to the test compound (Mtb strain mc^27000): 6 fold; MIC (Mtb strain mc^27000; [11]): 13.3 ± 1.6 µM (≈ 5.07 µg/mL); MIC (Mtb strain mc^27000; [12]): 13.3 ± 1.6 µM (≈ 5.07 µg/mL); MIC higher than compound F in whole cell testing (Mtb strain mc^27000; relative to compound F): ~2 fold; growth inhibition in HDF cells relative to DMSO only control ([1]; up to 40 (unit not given)): did not show any growth inhibition; IC50 [2, 13]: 710 ± 50 nM; IC50 value lower than compound F against Pks13-TE ([2]; relative to compound F): > 2 fold; loss of inhibitory activity / higher IC50 against Pks13-TE compared to the test compound ([2]; relative to test compound): ~3 fold
CC(C)(C)OC(=O)N1CCN(C(=O)c2c(-c3ccccc3)oc3ccc(O)c(CN4CCCCC4)c23)CC1 [compound 39] | 2.1 (≈ 1.09 µg/mL) | 2.1 (≈ 1.09 µg/mL) | 101 | 100 | 660 | 660 | –
CCOC(=O)c1c(-c2ccccc2)oc2cc(N)c(O)c(CN3CCCCC3)c12 [compound 27] | 8 (≈ 3.16 µg/mL) | 8 (≈ 3.16 µg/mL) | 77 | – | 370 | 370 | Survival vs. Control [1, 10]: 114%
CNC(=O)c1c(-c2ccccc2)oc2cc(O)cc(CN3CCCCC3)c12 [compound 40] | 20 (≈ 7.29 µg/mL) | 20 (≈ 7.29 µg/mL) | 101 | 100 | 600 | 600 | –
CCOC(=O)c1c(-c2ccc(C#N)cc2)oc2ccc(O)c(CN3CCCCC3)c12 [compound 62] | 1.5 (≈ 0.607 µg/mL) | 1.5 (≈ 0.607 µg/mL) | 90 | 6.25 | 270 | 270 | –
CCOC(=O)c1c(-c2ccccc2)oc2ccc(O)c(CN3CCCC3)c12 [compound 3] | – | – | – | – | 240 ± 20 | – | higher MIC compared to the test compound (Mtb strain mc^27000): ~2 fold; MIC (Mtb strain mc^27000; [9]): 4.1 µM (≈ 1.5 µg/mL); MIC (Mtb strain mc^27000; [12]): 4.1 ± 0.1 µM (≈ 1.5 µg/mL); IC50 ([1]; read-out: half-maximum inhibitory concentration in HDF cells, HDF cells, resazurin): > 15 µM; IC50 [2, 13]: 240 ± 20 nM
CCOC(=O)c1c(-c2ccc(F)cc2)oc2cc(O)cc(CCNC(C)C)c12 [compound 73] | 2.5 (≈ 0.964 µg/mL) | 2.5 (≈ 0.964 µg/mL) | 97 | 12.5 | 2100 | 1500 to 2100 | –
COC(=O)c1c(-c2ccccc2)oc2cc(O)cc(CNC(C)C)c12 [compound 67] | 9 (≈ 3.05 µg/mL) | 9 (≈ 3.05 µg/mL) | 97 | 25 | – | 700 | –
CCOC(=O)c1c(-c2ccccc2)oc2ccc(O)c(CN3CCCCCC3)c12 [compound 4] | 4.6 ± 0.3 (≈ 1.81 µg/mL) | – | – | – | 280 ± 30 | – | higher MIC compared to the test compound (Mtb strain mc^27000): ~2 fold; MIC (Mtb strain mc^27000; [4]): 4.6 ± 0.03 µM (≈ 1.81 µg/mL); growth inhibition in HDF cells relative to DMSO only control [1]: did not show any growth inhibition; IC50 [2, 13]: 280 ± 30 nM
O=C(c1c(-c2ccccc2)oc2ccc(O)c(CN3CCCCC3)c12)N1CCNCC1 [compound 41] | 20 (≈ 8.39 µg/mL) | 3.1 (≈ 1.3 µg/mL) | 100 | 100 | 440 | 740 | –
CNC(=O)c1c(-c2ccc(O)c(F)c2)oc2ccc(O)c(CN3CCCCC3)c12 [compound 61] | 0.5 (≈ 0.199 µg/mL) | 0.5 (≈ 0.199 µg/mL) | 94 | 50 | – | 330 | –
CCOC(=O)c1c(-c2ccccc2)oc2cc(O)cc(CN3CCC(C#N)CC3)c12 [compound 69] | 20 (≈ 8.09 µg/mL) | 20 (≈ 8.09 µg/mL) | 93 | 50 | 1600 | 1600 | –
CC(=O)NCCNC(=O)c1c(-c2ccccc2)oc2ccc(O)c(CN3CCCCC3)c12 [compound 44] | > 40 | > 40 | 104 | 50 | 500 | 500 | –
CCOC(=O)c1c(-c2ccccc2)oc2ccc(O)c(CN3CCCC(C)C3)c12 (centres unmarked) [compound 2] | – | – | – | – | 120 | – | higher MIC compared to the test compound (Mtb strain mc^27000): ~2 fold; MIC (Mtb strain mc^27000; [11]): 4.4 ± 0.2 µM (≈ 1.73 µg/mL); MIC (Mtb strain mc^27000; [12]): 4.4 ± 0.2 µM (≈ 1.73 µg/mL); growth inhibition in HDF cells relative to DMSO only control ([1]; up to 40 (unit not given)): did not show any growth inhibition; IC50 [2, 13]: 120 ± 20 nM
CNC(=O)c1c(-c2ccc(O)nc2)oc2cc(O)cc(CN3CCCCC3)c12 [compound 88] | 2.8 (≈ 1.07 µg/mL) | – | 96 | 50 | – | 2800 | –
CCOC(=O)c1c(-c2ccccc2)oc2cc(O)cc(CN3CCC(NC(C)=O)CC3)c12 [compound 70] | > 40 | > 40 | 91 | 50 | 6100 | 6100 | –
CCOC(=O)c1c(-c2ccccc2)oc2cc(O)cc(CN3CCCCC3)c12 [compound 38] | 6.7 (≈ 2.54 µg/mL) | 6.7 (≈ 2.54 µg/mL) | 111 | 100 | – | 450 | –
OCc1c(-c2ccccc2)oc2ccc(O)c(CN3CCCCC3)c12 [compound 65] | 12.5 (≈ 4.22 µg/mL) | 6 to 12.5 (≈ 2.02 to 4.22 µg/mL) | 95 | 25 | 240 | 240 | –
